Laboratory results from patent publication US12251382B2, “Substituted amino-pyrimidine compound for use in a method for treatment and prevention of multiple sclerosis” (Merck Patent GmbH, priority 2018, dated 2025).
Where two headings read alike, the source gives them in different places.

[1] = Part 1, pooled active, listed as evobrutinib

Procedure: A randomized, double-blind, placebo-controlled trial conducted in healthy volunteers. […] Written informed consent was obtained from all participants.
Following completion of each dose cohort in both parts of the study, a safety monitoring committee (SMC) decided whether protocol-defined dose escalation to the next level was appropriate to a maximum of 500 mg in Part 1, or to the highest safe and tolerated dose or highest dose from Part 1 in Part 2, based on all safety data and other available data (including PK and PD data). […] Other safety data (e.g., hematology parameters) were also taken into consideration for dose escalation decisions as a matter of course.
TEAEs and SAEs were recorded from time of informed consent until study completion. […] Assessment of severity considered the Toxicity Grading Scale for Healthy Adult and Adolescent Volunteers Enrolled in Preventative Vaccine Clinical Trials. Data were summarized using descriptive statistics.

In the case of `C=CC(=O)N1CCC(CNc2ncnc(N)c2-c2ccc(Oc3ccccc3)cc2)CC1` [Evobrutinib, 1-(4-(((6-amino-5-(4-phenoxyphenyl)pyrimidin-4-yl)amino)methyl)piperidin-1-yl)prop-2-en-1-one], the “Severity of TEAEs” value (Part 1) is reported as “mild (Grade 1) except in one subject in the 200 mg treatment group”, the “Subjects with contact dermatitis at locations of ECG pads” value (Part 1, all evobrutinib doses) is reported as 5.6% and the Subjects with headache (Part 1, all evobrutinib doses) is reported as 5.6%. For the same compound, the “Dose-limiting TEAE” value (Part 1, one subject in the 200 mg treatment group) was “Grade 4 increased lipase in combination with Grade 3 increased amylase”, the “Abdominal pain, subjects” value (Part 1, pooled active) was 0 (0.0) n (%) and the “Amylase increased, number of TEAEs” value (Part 1, pooled active) was “[1]”. For the same compound, the “Amylase increased, subjects” value (Part 1, pooled active) was 1 (2.8) n (%), the “Application site pruritus (due to ECG stickers), subjects” value (“Application site pruritus” for short) (Part 1, pooled active) was 0 (0.0) n (%) and the “Back pain, number of TEAEs” value (Part 1, pooled active) was “[1]”. The “Back pain, subjects” value (Part 1, pooled active) was 1 (2.8) n (%), the “Contact dermatitis, number of TEAEs” value (Part 1, pooled active) was “[2]” and the “Contact dermatitis, subjects” value (Part 1, pooled active) was 2 (5.6) n (%). For the same compound, the “Dizziness, number of TEAEs” value (Part 1, pooled active) was “[1]”, the “Dizziness, subjects” value (Part 1, pooled active) was 1 (2.8) n (%) and the “Dry eye, number of TEAEs” value (Part 1, pooled active) was “[1]”. The “Dry eye, subjects” value (Part 1, pooled active) was 1 (2.8) n (%), the “Dry mouth, subjects” value (Part 1, pooled active) was 0 (0.0) n (%) and the “Dyspepsia, number of TEAEs” value (Part 1, pooled active) was “[1]”. The “Dyspepsia, subjects” value (Part 1, pooled active) was 1 (2.8) n (%), the “Excoriation, number of TEAEs” value (Part 1, pooled active) was “[1]” and the “Excoriation, subjects” value (Part 1, pooled active) was 1 (2.8) n (%). The “Headache, number of TEAEs” value (Part 1, pooled active) was “[3]”, the “Headache, subjects” value (Part 1, pooled active) was 2 (5.6) n (%) and the “Lipase increased, number of TEAEs” value (Part 1, pooled active) was “[1]”. For the same compound, the “Lipase increased, subjects” value (Part 1, pooled active) was 1 (2.8) n (%), the “Multiple injuries, number of TEAEs” value (Part 1, pooled active) was “[1]” and the “Multiple injuries, subjects” value (Part 1, pooled active) was 1 (2.8) n (%). The “Nasal congestion, number of TEAEs” value (Part 1, pooled active) was “[1]”, the “Nasal congestion, subjects” value (Part 1, pooled active) was 1 (2.8) n (%) and the “Noncardiac chest pain, subjects” value (Part 1, pooled active) was 0 (0.0) n (%). For the same compound, the “Odynophagia, number of TEAEs” value (Part 1, pooled active) was “[1]”, the “Odynophagia, subjects” value (Part 1, pooled active) was 1 (2.8) n (%) and the “Overall total TEAEs, subjects” value (Part 1, pooled active) was 9 (25.5) n (%). For the same compound, the “Overall total, number of TEAEs” value (Part 1, pooled active) was “[15]”, the “Upper respiratory tract infection, subjects” value (Part 1, pooled active) was 0 (0.0) n (%) and the “Contact dermatitis, number of TEAEs” value [1] was “two”. The “Headache, number of TEAEs” value [1] was “three”, the “Overall total, number of TEAEs” value [1] was 15 and the “Abdominal pain, subjects” value (Part 1, single dose 25 mg) was 0 (0.0) n (%). For the same compound, the “Amylase increased, subjects” value (Part 1, single dose 25 mg) was 0 (0.0) n (%), the “Application site pruritus” value (Part 1, single dose 25 mg) was 0 (0.0) n (%) and the “Back pain, subjects” value (Part 1, single dose 25 mg) was 0 (0.0) n (%). For the same compound, the “Contact dermatitis, subjects” value (Part 1, single dose 25 mg) was 0 (0.0) n (%), the “Dizziness, subjects” value (Part 1, single dose 25 mg) was 0 (0.0) n (%) and the “Dry eye, subjects” value (Part 1, single dose 25 mg) was 0 (0.0) n (%). For the same compound, the “Dry mouth, subjects” value (Part 1, single dose 25 mg) was 0 (0.0) n (%), the “Dyspepsia, subjects” value (Part 1, single dose 25 mg) was 0 (0.0) n (%) and the “Excoriation, subjects” value (Part 1, single dose 25 mg) was 0 (0.0) n (%). The “Headache, subjects” value (Part 1, single dose 25 mg) was 0 (0.0) n (%), the “Lipase increased, subjects” value (Part 1, single dose 25 mg) was 0 (0.0) n (%) and the “Multiple injuries, subjects” value (Part 1, single dose 25 mg) was 0 (0.0) n (%). For the same compound, the “Nasal congestion, subjects” value (Part 1, single dose 25 mg) was 0 (0.0) n (%), the “Noncardiac chest pain, subjects” value (Part 1, single dose 25 mg) was 0 (0.0) n (%) and the “Odynophagia, subjects” value (Part 1, single dose 25 mg) was 0 (0.0) n (%). The “Overall total TEAEs, subjects” value (Part 1, single dose 25 mg) was 0 (0.0) n (%), the “Upper respiratory tract infection, subjects” value (Part 1, single dose 25 mg) was 0 (0.0) n (%) and the “Abdominal pain, subjects” value (Part 1, single dose 50 mg) was 0 (0.0) n (%). The “Amylase increased, subjects” value (Part 1, single dose 50 mg) was 0 (0.0) n (%), the “Application site pruritus” value (Part 1, single dose 50 mg) was 0 (0.0) n (%) and the “Back pain, number of TEAEs” value (Part 1, single dose 50 mg) was “[1]”. For the same compound, the “Back pain, subjects” value (Part 1, single dose 50 mg) was 1 (16.7) n (%), the “Contact dermatitis, number of TEAEs” value (Part 1, single dose 50 mg) was “[2]” and the “Contact dermatitis, subjects” value (Part 1, single dose 50 mg) was 2 (33.3) n (%). For the same compound, the “Dizziness, subjects” value (Part 1, single dose 50 mg) was 0 (0.0) n (%), the “Dry eye, subjects” value (Part 1, single dose 50 mg) was 0 (0.0) n (%) and the “Dry mouth, subjects” value (Part 1, single dose 50 mg) was 0 (0.0) n (%). The “Dyspepsia, number of TEAEs” value (Part 1, single dose 50 mg) was “[1]”, the “Dyspepsia, subjects” value (Part 1, single dose 50 mg) was 1 (16.7) n (%) and the “Excoriation, subjects” value (Part 1, single dose 50 mg) was 0 (0.0) n (%). For the same compound, the “Headache, number of TEAEs” value (Part 1, single dose 50 mg) was “[2]”, the “Headache, subjects” value (Part 1, single dose 50 mg) was 1 (16.7) n (%) and the “Lipase increased, subjects” value (Part 1, single dose 50 mg) was 0 (0.0) n (%). The “Multiple injuries, subjects” value (Part 1, single dose 50 mg) was 0 (0.0) n (%), the “Nasal congestion, subjects” value (Part 1, single dose 50 mg) was 0 (0.0) n (%) and the “Noncardiac chest pain, subjects” value (Part 1, single dose 50 mg) was 0 (0.0) n (%). For the same compound, the “Odynophagia, subjects” value (Part 1, single dose 50 mg) was 0 (0.0) n (%), the “Overall total TEAEs, subjects” value (Part 1, single dose 50 mg) was 3 (50.0) n (%) and the “Overall total, number of TEAEs” value (Part 1, single dose 50 mg) was “[6]”. The “Upper respiratory tract infection, subjects” value (Part 1, single dose 50 mg) was 0 (0.0) n (%), the “Abdominal pain, subjects” value (Part 1, single dose 100 mg) was 0 (0.0) n (%) and the “Amylase increased, subjects” value (Part 1, single dose 100 mg) was 0 (0.0) n (%). For the same compound, the “Application site pruritus” value (Part 1, single dose 100 mg) was 0 (0.0) n (%), the “Back pain, subjects” value (Part 1, single dose 100 mg) was 0 (0.0) n (%) and the “Contact dermatitis, subjects” value (Part 1, single dose 100 mg) was 0 (0.0) n (%). For the same compound, the “Dizziness, subjects” value (Part 1, single dose 100 mg) was 0 (0.0) n (%).
